In patent EP0080819A1, “11-0-Alkylerythromycin A derivatives” (TAISHO PHARMACEUTICAL CO. LTD, priority 1981, dated 1983):

System: Staphylococcus aureus Smith No. 4
Experiment: In vivo antibacterial activity (mouse protection test, number of surviving mice)
Details: oral, one hour after inoculation, male ddY mice, groups of 20, 10^7 cells per mouse, i.p., living mice for seven days after administration
Experimental: Male ddY mice weighing 20 - 23 g in groups 20 each were inoculated with Staphylococcus aureus Smith No. 4 (10^7 cells per mouse, i.p.). Erythromycin A was used as a control, the compound of formula I wherein R is methyl group("compound 1") was administered orally at one hour after inoculation, and the number of living mice for seven days after administration was calculated to determine the in vivo antibacterial activity.

Compound | In vivo Antibacterial Activity [The Number of Surviving Mice] (dose 0.5 mg/mouse) | In vivo Antibacterial Activity [The Number of Surviving Mice] (dose 1 mg/mouse) | In vivo Antibacterial Activity [The Number of Surviving Mice] (dose 2 mg/mouse) | In vivo Antibacterial Activity [The Number of Surviving Mice] (dose 4 mg/mouse)
CC[C@H]1OC(=O)[C@H](C)[C@@H](O[C@H]2C[C@@](C)(OC)[C@@H](O)[C@H](C)O2)[C@H](C)[C@@H](O[C@@H]2O[C@H](C)C[C@H](N(C)C)[C@H]2O)[C@](C)(O)C[C@@H](C)C(=O)[C@H](C)[C@@H](OC)[C@]1(C)O [Compound 1, 11-0-methylerythromycin A] | 6 | 12 | 20 | 20
CC[C@H]1OC(=O)[C@H](C)[C@@H](O[C@H]2C[C@@](C)(OC)[C@@H](O)[C@H](C)O2)[C@H](C)[C@@H](O[C@@H]2O[C@H](C)C[C@H](N(C)C)[C@H]2O)[C@](C)(O)C[C@@H](C)C(=O)[C@H](C)[C@@H](O)[C@]1(C)O [Erythromycin A] | 4 | 8 | 18 | 20
